Assay results as given in patent publication US5504101A, “5-HT-1D receptor ligands” (priority 1994, dated 1996).

Target: T1, 5-HT1Dβ receptor (Homo sapiens, UniProt P28222)
T1 construct: expressed in transfected cells
Test: biochemical
Type: binding
Conditions: ^3 H-5-HT radioligand; membranes from recombinant cells; 15 minute incubation at 37° C.; test compound 10^-11 M to 10^-5 M
Description: The assay protocol generally entailed the incubation of membranes prepared from cells expressing the 1Dβ sub-type of 5-HT1D receptors, with ^3 H-5-HT. Increasing concentrations of the test compound were incubated with the radioligand and the membrane homogenates prepared from the recombinant cells. After a 15 minute incubation at 37° C., the incubation was terminated by vacuum filtration. The filters were washed with buffer and counted for radioactivity using liquid scintillation spectrometry. The affinity of the test compound for 5-HT1DIβ receptor was determined by computer-assisted analysis of the data and by determining the amount of the compound necessary to inhibit 50% of the binding of the radioligand to the receptor. Concentrations ranging from 10^-11 M to 10^-5 M of the test compounds were evaluated.

T1 sequence (P28222 whole entry): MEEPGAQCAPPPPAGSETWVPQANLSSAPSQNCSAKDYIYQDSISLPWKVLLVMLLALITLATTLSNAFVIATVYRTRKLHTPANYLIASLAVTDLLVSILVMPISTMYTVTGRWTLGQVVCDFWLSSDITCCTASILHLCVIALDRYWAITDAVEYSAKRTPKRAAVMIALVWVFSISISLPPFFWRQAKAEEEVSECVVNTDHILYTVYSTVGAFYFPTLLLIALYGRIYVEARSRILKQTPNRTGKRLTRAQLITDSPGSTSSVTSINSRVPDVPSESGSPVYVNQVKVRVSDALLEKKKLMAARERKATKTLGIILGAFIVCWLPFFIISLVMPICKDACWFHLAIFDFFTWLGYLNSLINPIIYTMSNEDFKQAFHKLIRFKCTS

Row | Structure (SMILES) | Ki [nM]
1 | NCCc1c[nH]c2ccc(Cc3ccccc3)cc12 [PhCH2 --, 3-(2-aminoethyl)-5-benzylindole] | 3.7
2 | NCCc1c[nH]c2ccc(OCCCCCCc3ccccc3)cc12 [Ph(CH2)6 O--, 3-(2-aminoethyl)-5-(6-phenylhexyloxy)indole] | 1.9
3 | NCCc1c[nH]c2ccc(OCc3ccccc3)cc12 [PhCH2 O--, 3-(2-aminoethyl)-5-benzyloxyindole, reference compound] | 10.5
4 | COc1ccc(CCc2ccc3[nH]cc(CCN)c3c2)cc1 [4-MeO--Ph(CH2)2 --, 3-(2-aminoethyl)-5-(2-(4-methoxyphenyl)ethyl)indole] | 3.2
5 | NCCc1c[nH]c2ccc(OCCCCCCCCc3ccccc3)cc12 [Ph(CH2)8 O--, reference compound] | 13.3
6 | NCCc1c[nH]c2ccc(CCc3ccccc3)cc12 [Ph(CH2)2 --, 3-(2-aminoethyl)-5-(2-phenylethyl)-indole] | 2.9
7 | NCCc1c[nH]c2ccc(OCCCCc3ccccc3)cc12 [Ph(CH2)4 O--, 3-(2-aminoethyl)-5-(4-phenylbutyloxy)indole] | 0.19
8 | NCCc1c[nH]c2ccc(OCCc3ccccc3)cc12 [Ph(CH2)2 O--, 3-(2-aminoethyl)-5-(2-phenylethyloxy)indole] | 1
9 | NCCc1c[nH]c2ccc(OCCCCCc3ccccc3)cc12 [Ph(CH2)5 O--, 3-(2-aminoethyl)-5-(5-phenylpentyloxy)indole] | 0.64
